Test results as given in ChEMBL document CHEMBL1201862, “PubChem BioAssay data set” (2004).
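Cells were grown in 96-well plates and exposed to each compound for 48 hours at five concentrations; endpoints were interpolated linearly between bracketing concentrations, or set to the highest concentration if not reached. GI50: concentration for 50% inhibition of growth.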 Activity calls are given as the source filed them. Cut-off read from the data, not from the text of the source: active = GI50 up to about 1.1 µM and inactive = higher.

Experiments:
Experiment in all cases: growth of human tumour cells (NCI), 48 h
[1] = tested on: MDA-N
[2] = tested on: T47D
[3] = tested on: COLO 205
[4] = tested on: SK-OV-3
[5] = tested on: TK-10
[6] = tested on: HCT-116
[7] = tested on: HT-29
[8] = tested on: SN12C
[9] = tested on: RXF 393
[10] = tested on: KM12
[11] = tested on: NCI-H460
[12] = tested on: SNB-19
[13] = tested on: BT-549
[14] = tested on: LOX IMVI
[15] = tested on: PC-3
[16] = tested on: 786-0
[17] = tested on: SK-MEL-2
[18] = tested on: SW-620
[19] = tested on: SF-539

Measured: GI50

S=C1Nc2ccccc2SC1c1ccccc1 (stereo unspecified)
inactive: [1] > 100 µM | [2] 72.6 µM | [3] > 100 µM | [4] 35.8 µM | [5] 56.6 µM | [6] > 100 µM | [7] > 100 µM | [8] > 100 µM | [9] 16.6 µM | [10] > 100 µM | [11] > 100 µM | [12] 39 µM | [13] > 100 µM | [14] 49.7 µM | [15] 57.9 µM | [16] 34.9 µM

O=C1c2cccnc2S(=O)(=O)N1c1ccc(Br)cc1
inactive: [1] > 100 µM | [17] > 100 µM | [2] > 100 µM | [3] > 100 µM | [4] > 100 µM | [5] > 100 µM | [6] > 100 µM | [7] > 100 µM | [8] > 100 µM | [9] > 100 µM | [10] > 100 µM | [12] 75.7 µM | [18] > 100 µM | [13] 79.1 µM | [14] > 100 µM | [15] 72.4 µM | [16] > 100 µM

O=C(O)[C@@H]1CCC(=O)N1C(c1ccc2c(c1)OCO2)c1ccc2c(c1)OCO2
inactive: [1] > 100 µM | [17] > 100 µM | [2] > 100 µM | [3] > 100 µM | [4] > 10 µM | [5] > 100 µM | [6] > 100 µM | [7] > 100 µM | [8] > 100 µM | [10] > 100 µM | [11] > 100 µM | [12] > 100 µM | [18] > 100 µM | [13] > 100 µM | [14] > 100 µM | [15] > 100 µM | [16] > 100 µM | [19] > 100 µM

CN(C)c1ccc2c(c1)oc(=O)c1ccccc12
inactive: [1] 6.27 µM | [17] 6.24 µM | [2] 12.2 µM | [3] 12.2 µM | [5] 19.7 µM | [6] 12.3 µM | [7] 10.4 µM | [8] 12.8 µM | [9] 5.4 µM | [11] 10.4 µM | [12] 14.3 µM | [18] 11.4 µM | [13] 3.44 µM | [14] 6.14 µM | [15] 15.7 µM | [16] 11.9 µM | [19] 14 µM

CCCCCCCCCCCCCCCCCCNC(=S)NC=C1C(=O)c2ccccc2C1=O
inactive: [1] 16 µM | [2] 15.8 µM | [3] 15.7 µM | [4] 16 µM | [5] 16.6 µM | [6] 4.08 µM | [7] 11.5 µM | [8] 16 µM | [10] 10.7 µM | [11] 12.1 µM | [12] 17.3 µM | [18] 11.1 µM | [13] 15.7 µM | [14] 3.9 µM | [15] 3.83 µM | [16] 9.12 µM | [19] 18.3 µM

S=C(N1CCN(c2ccc(Cl)c(Cl)c2)CC1)N1CCN(c2ccc(Cl)c(Cl)c2)CC1
inactive: [1] 11.6 µM | [17] 19.9 µM | [2] 7.94 µM | [3] 10.6 µM | [4] 12.5 µM | [5] 13.4 µM | [6] 7.19 µM | [7] 9.42 µM | [9] 14.3 µM | [10] 14.1 µM | [12] 12.5 µM | [18] 17.5 µM | [13] 16.2 µM | [15] 12.7 µM | [16] 10.8 µM

O=c1[nH]nc(Cc2ccc(Cl)cc2)n1/N=C/c1ccco1
inactive: [1] > 100 µM | [17] 40.1 µM | [2] > 100 µM | [3] > 100 µM | [4] 80.2 µM | [6] 93.1 µM | [7] 33.1 µM | [8] > 100 µM | [9] 26.5 µM | [10] > 100 µM | [11] > 100 µM | [12] 25.4 µM | [18] > 100 µM | [13] 40.6 µM | [15] > 100 µM | [16] 30.4 µM | [19] 27.4 µM

CC(=O)/C(=C/n1c(=S)sc2ccccc21)C(=O)Nc1ccccc1C
inactive: [1] > 100 µM | [17] > 100 µM | [2] 40.9 µM | [3] > 100 µM | [4] > 100 µM | [5] > 100 µM | [6] > 100 µM | [7] > 100 µM | [8] > 100 µM | [9] > 100 µM | [10] > 100 µM | [11] > 100 µM | [12] > 100 µM | [18] > 100 µM | [13] > 100 µM | [14] > 100 µM | [16] > 100 µM | [19] > 100 µM

CN(C)CCn1c(=O)oc2cc(C(=O)CN3CCOCC3)ccc21
inactive: [1] > 100 µM | [17] > 100 µM | [3] > 100 µM | [4] > 100 µM | [5] > 100 µM | [6] > 100 µM | [7] > 100 µM | [8] > 100 µM | [9] > 100 µM | [10] > 100 µM | [11] > 100 µM | [12] > 100 µM | [18] > 100 µM | [13] > 100 µM | [14] > 100 µM | [15] > 100 µM | [16] > 100 µM | [19] > 100 µM

Cc1ccc(C)n1-n1c(Cc2ccccc2)n[nH]c1=O
inactive: [1] > 100 µM | [17] > 100 µM | [2] > 100 µM | [3] 76.7 µM | [4] > 100 µM | [5] > 100 µM | [6] > 100 µM | [7] > 100 µM | [8] > 100 µM | [9] > 100 µM | [10] > 100 µM | [11] > 100 µM | [12] > 100 µM | [18] > 100 µM | [13] > 100 µM | [14] > 100 µM | [15] > 100 µM | [16] > 100 µM

O=C(N/N=C/c1ccccc1)c1c(-c2cccnc2)cnc2ccccc12
inactive: [1] 29.2 µM | [17] > 100 µM | [3] > 100 µM | [4] 84.5 µM | [5] > 100 µM | [6] 52.5 µM | [7] 42.1 µM | [8] > 100 µM | [9] > 100 µM | [10] 33 µM | [11] 61.1 µM | [12] > 100 µM | [18] 59.6 µM | [13] 79.4 µM | [15] > 100 µM | [16] > 100 µM | [19] 70.3 µM

CCOC(=O)/C(=N\Nc1ccc(-n2c(C)nc3ccc(Br)cc3c2=O)cc1)C(C)=O
inactive: [1] 71.1 µM | [17] 70 µM | [2] 33.1 µM | [3] 54.3 µM | [4] > 100 µM | [5] 60.3 µM | [6] 43.6 µM | [7] > 100 µM | [8] > 100 µM | [10] 59.6 µM | [11] 99.3 µM | [12] 52.1 µM | [18] > 100 µM | [13] 47 µM | [14] > 100 µM | [15] 44.6 µM | [16] 59.2 µM | [19] 38.8 µM

Clc1cc(Cl)nc(Nc2ccc3c(c2)CCC3)n1
inactive: [1] 40.1 µM | [17] 45 µM | [2] 69.3 µM | [3] 24 µM | [4] > 100 µM | [5] 18.1 µM | [6] 28.6 µM | [7] 22 µM | [8] 45.4 µM | [10] 21.4 µM | [11] 30.4 µM | [12] 89.5 µM | [18] 46.6 µM | [13] 48.6 µM | [14] 32.1 µM | [15] 61.9 µM | [16] 39.1 µM | [19] > 100 µM

NC(=O)c1cc2ccccc2c(/N=N/c2ccccc2)c1O
inactive: [1] > 100 µM | [17] > 100 µM | [2] > 100 µM | [3] > 100 µM | [4] 76.6 µM | [5] > 100 µM | [6] 14.1 µM | [7] 7.87 µM | [8] > 100 µM | [9] > 100 µM | [10] 28.6 µM | [12] > 100 µM | [18] > 100 µM | [13] > 100 µM | [14] > 100 µM | [15] > 100 µM | [16] 9.31 µM

CC(=O)O[C@H]1CCc2c(cc(N)c3c2C(=O)C[C@]2(C)C([C@H](C)CCCC(C)C)CCC32C)C1(C)C (stereo partly specified)
inactive: [1] > 100 µM | [17] > 100 µM | [2] > 100 µM | [3] > 100 µM | [4] > 100 µM | [5] > 100 µM | [6] 89.7 µM | [7] 42.2 µM | [8] > 100 µM | [9] > 100 µM | [10] > 100 µM | [11] > 100 µM | [12] > 100 µM | [18] > 100 µM | [13] > 100 µM | [15] 72.8 µM | [16] > 100 µM | [19] 71.9 µM

CN(C)C(=O)Oc1ccc[n+](C)c1 [PYRIDOSTIGMINE BROMIDE]
inactive: [1] > 100 µM | [17] > 100 µM | [2] > 100 µM | [3] > 100 µM | [5] > 100 µM | [6] > 100 µM | [7] > 100 µM | [8] > 100 µM | [9] > 100 µM | [10] > 100 µM | [11] > 100 µM | [12] > 100 µM | [18] > 100 µM | [13] > 100 µM | [14] > 100 µM | [15] > 100 µM | [16] > 100 µM
